Experimental data reported in patent US20040081618A1, “Method of screening physiologically active substance” (priority 2000, published 2004).

Columns and labels:
HL-60 cells [1] = assay: Gene expression analysis with Human Cytokine CHIP (ver. 1.0) in TPA-treated neutrophile-like differentiated HL-60 cells; format: cell-based; conditions: genes showing fluctuation by TPA; 100 μL of 4 mM DGE aqueous solution added to 10 mL of 10^6 cells/mL, 6 hours, then TPA, total RNA 4 hours thereafter
Method: HL-60 cells (ATCC CCL-240) were suspended in RPMI 1640 medium (manufactured by Bio Whittaker, 12-702F) containing 10% fetal bovine serum (manufactured by JRH Biosciences) and 1.3% dimethyl sulfoxide, and the cells were cultured at 37° C. for one week in the presence of 5% carbon dioxide gas to induce differentiation to neutrophile-like cells.
The cells obtained as described above were collected by centrifugation, and suspended in 10% fetal bovine serum-containing RPMI 1640 medium so as to have a concentration of 10^6 cells/mL, and 10-mL portions of the cells were added to a 10-cm petri dish. […]
Twenty-five micrograms of each of the total RNAs obtained as described above and 100 pg of λ poly A^+ RNA-A (manufactured by Takara Shuzo Co., Ltd., TX802) were subjected to synthesis reaction of fluorescence-labeled cDNA by using RNA Fluorescence Labeling Core Kit (manufactured by Takara Shuzo Co., Ltd., TX807) and 1 mM FluoroLink Cy3-dUTP or Cy5-dUTP (manufactured by Amersham-Pharmacia Biotech, PA53022(Cy3), PA55022(Cy5) in accordance with the instruction for the kit and the resulting cDNA was purified. The solutions of fluorescence-labeled DNA were mixed in the combination of Table 4, and the mixture was subjected to a chloroform-isoamyl alcohol (24:1) extraction. […]

HL-60 cells [2] = assay: Analysis of expression using DNA microarray (740 clones from DNA microbeads screening) in TPA-treated differentiated HL-60 cells; format: cell-based, human; conditions: 4 mM DGE 100 μL in 10 mL, 6 hours, then TPA, RNA 4 hours thereafter, expression ratio 0.55 or less or 1.8 or more
Method: The reaction for PCR was carried out by using a primer pair having the sequences shown in SEQ ID NO: 10 and SEQ ID NO: 11 of Sequence Listing, with the 740 clones of plasmids obtained in Example 3 as a template. Next, the amplified product was purified by ethanol precipitation, and thereafter the product was dissolved in 1×SolutionT (manufactured by Takara Shuzo Co., Ltd.) so as to have a concentration of 0.3 μg/μl, and this solution was used as a spotting solution. The spotting solution was spotted on MAS-coated slide glass (manufactured by Matsunami Glass), amino-group carrying slide glass, by using Affymetrix 417 Arrayer (manufactured by Affymetrix). The spotted glass was incubated at 37° C. and humidity of 90% for 1 hour, and thereafter cross-linked by UV irradiation at energy of 60 mJ/cm^2. Further, the slide glass was washed once with 0.2% SDS and then twice with distilled water, and thereafter immersed in a blocking solution comprising 2.75 g of succinic anhydride, 162.5 ml of N-methyl-2-pyrrolidone and 15 ml of 1 M borate buffer (pH 8.0) for 20 minutes, to block free amino groups. Next, the slide glass was washed twice with distilled water and subjected to thermal denaturation in boiling water for 2 minutes, and rapidly cooled in 100% ethanol at ice temperature. Thereafter, the slide glass was dried by a low-speed centrifugation at 1000 rpm or so, and used for the following experiment. […]
A PolyA(+) RNA was prepared from HL-60 cells prepared in item (2) of Example 4 by using Trizol Reagent (manufactured by Gibco BRL) and Oligotex-dT30 <Super> (manufactured by Takara Shuzo Co., Ltd.) in accordance with the protocol for each of the kits. Next, each of cDNAs labeled with Cy3 and Cy5 was prepared by using RNA Fluorescence Labeling Core Kit (M-MLV Version) (manufactured by Takara Shuzo Co., Ltd.) in accordance with the protocol for the kit with 1.0 μg of PolyA(+) RNA as a template, and their cDNAs were mixed in the combinations of the sample RNA shown in Table 8.
Next, hybridization of the DNA microarray prepared in item (1) of Example 4 with the above-mentioned mixtures (4 kinds) of Cy3-labeled cDNA and Cy5-labeled cDNA was carried out in accordance with the instruction manual of IntelliGene (manufactured by Takara Shuzo Co., Ltd.), and the array was subjected to procedures of washing and drying. Subsequently, the fluorescence images were obtained for Cy3 (excitation wavelength: 532 nm, detection wavelength: 570 nm) and Cy5 (excitation wavelength: 635 nm, detection wavelength: 660 nm) by using Affymetrix 428 Array Scanner (manufactured by Affymetrix). […]

[3] = system: plastic adherent monocytes; assay: Gene expression analysis with Human Cytokine CHIP (ver. 2.0) in LPS-treated plastic adherent monocytes; format: cell-based
Method: Four-hundred milliliters of blood was collected from a human normal individual donor. The collected blood was diluted 2-folds with PBS(−), overlaid on Ficoll-paque (manufactured by Pharmacia), and centrifuged at 500×g for 20 minutes. The peripheral blood mononuclear cells (PBMCs) in the intermediate layer was collected with a pipette, and washed with RPMI 1640 medium (manufactured by Bio Whittaker). The collected PBMCs were suspended in a storage solution of 90% FCS (manufactured by JRH Biosciences)/10% dimethyl sulfoxide, and stored in liquid nitrogen. During the experiment, these stored PBMCs were rapidly melted in water bath at 37° C., and washed with RPMI 1640 medium containing 10 μg/ml Dnase (manufactured by Calbiochem). Thereafter, the number of living cells was calculated by trypan blue staining method, and subjected to each experiment.
PBMCs were suspended in RPMI 1640 medium containing 5% human serum of blood type-AB, 0.1 mM nonessential amino acid, 1 mM sodium pyruvate, 2 mM L-glutamine (hereinabove manufactured by Bio Whittaker), 10 mM HEPES (manufactured by nakalai tesque), and 1% streptomycin-penicillin (manufactured by Gibco BRL) (hereinafter simply referred to as “5HRPMI medium”) so as to have a concentration of 1×10^7 cells/mL. Thereafter, 15 ml of the suspension was spread on a 100-mm petri dish (manufactured by Asahi Techno Glass), and the cells were incubated in a wet-type incubator at 37° C. in the presence of 5% CO2 for 1.5 hours. […]
The synthesis of cDNA was carried out in accordance with the method described in item (2) of Example 1, provided that the combination of the solutions of fluorescence-labeled DNA was in accordance with that shown in Table 6. […]
The fluorescence signal was scanned for each spot of the above-mentioned chip by using Affymetrix 428 Array Scanner (manufactured by Takara Shuzo Co., Ltd.). The fluorescence signal was quantified for each spot by using ImaGene (manufactured by Takara Shuzo Co., Ltd., BD001) on the bases of the image data. […]

[4] = clones decreased by treatment with TPA
[5] = clones increased by treatment with TPA

Expression of Group G genes (Heme oxygenase-1 HMOX1; Table 7) ([3]; DGE+LPS versus negative control): increased
SMILES: O=C1C=CC(CO)OC1O [DGE, L-glycero-1,5-epoxy-1αβ,6-dihydroxy-cis-hex-3-en-2-one]
Expression of Group A-1 genes (BMP-6, CCR-1, HGF, ICAM-1, IL-1β, IL-16, LIF, Osteopontin, TNF-α, Neuropilin-1; Table 5) (HL-60 cells [1]): suppressed | Expression of Group B-1 genes (Heme oxygenase-1, Thioredoxin reductase-1; Table 5) (HL-60 cells [1]): accelerated | Expression of Group C-3 clones (NDRG1, ADAR, SF3B2, ILF3, VARS2, SEQ ID NO: 12; Tables 9, 11) (HL-60 cells [2]; [4]): further decreased | Expression of Group D-3 clones (EEF1A1, RPL17, RPL24, SFRS2, TPT1, UQCRB, RPS15A, RPL27; Tables 10, 11) (HL-60 cells [2]; [4]): further increased | Expression of Group A-3 clones (STAT6, FLJ22298 fis clone HRC04637; Tables 9, 11) (HL-60 cells [2]; [5]): further decreased | Expression of Group B-3 clones (SUI1, HSPC014; Tables 9, 11) (HL-60 cells [2]; [5]): further increased | Increase by LPS in expression of Group E genes (IL2RA, IL6, CD166, IRF1, IL15RA, NFKB1, CASP1, IL1B, TNF-α, GRO1, IL1A, INHBA, IL7R, PBEF, LARC, IL8; Table 7) ([3]; 10 μL of 20 mM DGE aqueous solution in 10 mL medium, 4 hours, then LPS, total RNA 4 hours thereafter): suppressed | Expression of Group F genes (CSF1R, CXCR4, ENG; Table 7) ([3]; genes not fluctuating by LPS, DGE+LPS versus negative control): decreased
